Drawing on BindingDB's records for doi:10.1128/AAC.01293-09 (Glaxosmithkline, 2010), this text covers IC50 for one compound.

Assay [1] can be described thus: Inhibition of HIV1 HXB2 gp120-mediated viral infusion into HEK293 cells after 24 hrs by luciferase reporter gene assay. (In general: Reporter assays use an easily measured gene product as a stand-in for the process of interest.)
Assay [2] in a line: Inhibition of CXCR4-mediated chemotaxis in SDF1-stimulated human U937 cells treated 15 mins before SDF1 challenge measured after 2 hrs by luminescence assay.
Assay [3] is described as follows: Inhibition of HIV1 HXB2 gp120-mediated viral infusion into HEK293 cells after 24 hrs by luciferase reporter gene assay in presence of 45 mg/ml human serum albumin.

`CN1CCN(c2cccc3nc(CN(C)[C@H]4CCCc5cccnc54)c(CO)n23)CC1` [([5-(4-Methyl-1-piperazinyl)-2-({methyl[(8S)-5,6,7,8-tetrahydro-8-quinolinyl]amino}methyl)imidazo[1,2-a]pyridin-3-yl]methanol)]: the half-inhibitory concentration (IC50) – broadly, the midpoint of a concentration-inhibition curve – in assay [1] was 560 pM; in assay [2], 340 pM; in assay [3], 1710 pM.
